What was measured:
[1] = test system: bone-marrow-derived murine DCs; experiment: In vitro MHC class-I antigen presentation: OVA-pulsed, Amphinex- and light-treated DCs co-cultured with OT-1 CD8 T cells, IFN-γ ELISA; format: cell-based, mouse
Experimental: The DCs were washed and illuminated for the indicated time intervals before adding 100,000 purified CD8 T cells from OT-1 mice. […] After washing, the DCs were illuminated for 15 seconds.
The antigen OVA (Sigma Aldrich, Buchs, Switzerland) and the photosensitiser Amphinex (TPCS2a, PCI Biotech, Lysaker, Norway) were incubated with DCs using petri dishes. Typically, DCs were pulsed for 2 h with OVA and Amphinex. The DCs were then collected and washed by centrifugation before re-suspension in medium and further incubation on petri dishes for 2 h in Amphinex- and OVA-free medium; this allows removal of Amphinex from the outer plasma membrane. The DCs were then washed, counted and plated in round-bottom 96-well plates (typically 100,000 DCs per well), and the cells were exposed to light (435 nm) using LumiSource® (PCI Biotech) for different time intervals. Sex-matched CD8-purified OT-1 cells were then added to the DC plates at 100,000 cells per well and incubated at 37° C. overnight. The secretion of IFN-γ into supernatants was measured using ELISA according to the protocol from eBioscience (Ready-SET-Go!®, Bender MedSystems, Vienna, Austria).
After removing the photosensitiser and antigen by washing and incubation for another 2 hours, the DCs were transferred to 96-well plates at 100,000 cells per well and treated with light at different time-doses before admixing an equal number of purified OT-1 CD8 T cells. […] Of note, antigen presentation and IFN-γ secretion of soluble OVA was improved by Amphinex alone, but not by light alone (FIG. 1a). To further test the sensitivity of DCs to PCI treatment, equivalent assays were performed using a single light dose of 15 seconds, but a wide range of Amphinex doses (0.0005-0.5 μg/ml), namely 0.003, 0.006, 0.0125, 0.025, 0.05, 0.1 and 0.2 μg/ml.

[2] = test system: Bone-marrow derived murine DCs; experiment: PCI-induced apoptosis and cell death of DCs, Annexin-V / propidium iodide flow cytometry; format: cell-based; conditions: 0.2 μg/ml Amphinex, 435 nm light 1 to 10 minutes, 2 hours rest at 37° C.
Experimental: The DCs were then washed and seeded into culture plates and treated with light for various time periods (minutes) as indicated. The cells were cultured for another 2 hours (or overnight) and the viability was analysed by flow cytometry after staining with Annexin-V and propidium iodide (PI). The results are illustrated as representative dotbiots (a) or summarised in histograms (b).
The DC viability was tested 2 hours after the PCI treatment by staining the cells with propidium iodide and Annexin-V to identify necrotic and apoptotic cells, respectively, which were analysed by flow cytometry (FACSCanto from BD Biosciences, San Jose, USA). The analysis was performed using the FlowJo 8.5.2 software from Tree Star, Inc. (Ashland, Oreg.). […] Cytokines were analysed by ELISA from supernatants of 24 hours cultures, and flow cytometry was done on cells after 48 hours incubation. […]
Therefore in a series of experiments, we analysed cell death and apoptosis by flow cytometry after staining of cells with propidium iodide and fluorescence-labelled anti-Annexin-V. A concentration of 0.2 μg/ml Amphinex induced light-dose dependent apoptosis and cell death upon illumination with 435 nm light for 1 to 10 minutes (FIG. 2a); the DCs were rested at 37° C. for 2 hours after light treatment before staining and acquisition. […]

DCs [3] = experiment: Activation of DCs: cytokine secretion (TNF-α, IL-6, IL-12, IL-1β) by ELISA; format: cell-based, mouse
Experimental: (§1) The cells were then washed and cultured in Amphinex- and OVA-free medium for another 2 hours before being treated with Lumisource® light for 3 minutes. The DCs were then cultured overnight before collection of supernatants for analysis of the cytokines TNF-α (a), IL-6 (b), IL-12 (c) and IL-1β (d). To measure the expression of CD80 by flow cytometry, DCs were cultured with 0, 0.1 or 1 μg/ml Amphinex and 0 or 10 μg/ml OVA as indicated (e). The histograms are representative of triplicates and show cells that were gated on viable and CD11c-positive cells. Arrows indicate samples that were treated with light for 3 min.
(§2) The DC viability was tested 2 hours after the PCI treatment by staining the cells with propidium iodide and Annexin-V to identify necrotic and apoptotic cells, respectively, which were analysed by flow cytometry (FACSCanto from BD Biosciences, San Jose, USA). The analysis was performed using the FlowJo 8.5.2 software from Tree Star, Inc. (Ashland, Oreg.). Activation of DCs was further tested by measuring the secretion of TNF-α, IL-6, IL-12 and IL-1β by ELISA (eBioscience) and the expression of MHC I, MHC II, CD40, CD80, CD83 and CD86 by flow cytometry. Briefly, the DCs were incubated for 2 hours with Amphinex or lipopolysaccharide E. coli clone 026:B6 (Sigma Aldrich), washed, incubated for another 2 hours in fresh medium, illuminated for 3 min with Lumisource® light, and incubated. Cytokines were analysed by ELISA from supernatants of 24 hours cultures, and flow cytometry was done on cells after 48 hours incubation. All FACS antibodies were purchased from BD Pharmingen (Basel, Switzerland) or from eBioscience.
We further tested the activation of DCs and their innate immune reactions after PCI treatment. Adjuvants and especially pathogen-associated molecular patterns (PAMPs) typically activate DCs and other antigen presenting cells via stimulation of pathogen recognition receptors such as Toll-like receptors, NOD-like receptors, C-type lectin and mannose receptors. Such activation then is typically characterised by secretion cytokines important for stimulation and regulation of further innate as well as adoptive immune responses. […] Although weak, the adjuvant effect with regard to IL-6 seemed light dependent, as IL-6 secretion was not increased by Amphinex or light alone, but only by their combination. However, the effect was much weaker than after stimulation of DCs with 1 μg/ml lipopolysaccharide (LPS). While stimulation of TNF-α and IL-6 secretion characterises the general adjuvant potential of a compound or a treatment, stimulation of IL-12 and IL-1β illustrates the potential to trigger Th1 T-cell responses and inflammasome, respectively.

DCs [4] = experiment: Activation of DCs: surface marker expression by flow cytometry; format: cell-based, mouse
Experimental: as §1, §2
DC constitutively expressed the co-stimulatory molecules CD80 and CD86 (FIG. 3e; CD80 only shown). […] The expression of CD40, MHC I and MHC II was not affected by Amphinex treatment (not shown).

[5] = PCI treatment: 1 μg/ml Amphinex plus 3 min light
[6] = PCI treatment: 1 μg/ml Amphinex plus 3 min light, measured after 22 hours incubation

Substance: Disulfonated tetraphenyl chlorin [Amphinex]
- immune responses (IFN-γ secretion), 0.05 μg/ml compared with 0.2 μg/ml Amphinex ([1]; 0.05 vs 0.2 μg/ml Amphinex): stronger immune responses
- antigen presentation (IFN-γ secretion by OT-1 CD8 T cells) ([1]; Amphinex 0.025 and 0.05 μg/ml, light 15 seconds): facilitated antigen presentation
- antigen presentation and IFN-γ secretion of soluble OVA ([1]; Amphinex alone, without light): improved
- antigen presentation ([1]; Amphinex combined with high light doses): clear detrimental effect
- IFN-γ secretion by OT-1 CD8 T cells ([1]; Amphinex doses higher than 0.05 μg/ml, light 15 seconds): declined
- MHC-1 antigen presentation as measured by IFN-γ secretion ([1]; DCs pulsed 2 h with OVA with 0.05 or 0.2 μg/ml Amphinex vs OVA only, IFN-γ after 24 hours): significantly increased
- amount of cells dying [2]: 50-60%
- apoptotic cells [2]: approx. 20%
- IL-6 secretion (DCs [3]; Amphinex alone, without light): not increased
- cytokine-stimulating (adjuvant) effect compared with 1 μg/ml lipopolysaccharide (LPS) (DCs [3]; PCI treatment (Amphinex plus light) vs 1 μg/ml LPS): much weaker
- IL-1β secretion (DCs [3]; [5]): neither were notably stimulated
- IL-12 secretion (DCs [3]; [5]): neither were notably stimulated
- IL-6 secretion (DCs [3]; [6]): weak stimulation
- TNF-α secretion (DCs [3]; [6]): weak stimulation
- CD40 expression (DCs [4]; Amphinex treatment): not affected
- MHC I expression (DCs [4]; Amphinex treatment): not affected
- MHC II expression (DCs [4]; Amphinex treatment): not affected
- CD80 expression (DCs [4]; Amphinex-treated DCs also treated with light 3 min, with or without OVA, gated on viable CD11c-positive cells): down-regulation

Reference: US20160040128A1, “METHOD” (PCI BIOTECH AS, priority 2013, published 2016)
